The text below walks through data of patent publication US7417156B2, “Orally active, antimalarial, anticancer, artemisinin-derived trioxane dimers” (Johns Hopkins University, priority 2002, dated 2008).

Data set [1] has as its system Ehrlich ascites tumor (EAT) cells. The conditions noted are these: MTT assay; cited from earlier work.
Data set [2] deals with P. berghei. The conditions noted are these: P. berghei-infected mice; cited from earlier work.
The subject of data set [3] is P388 leukemia. The conditions noted are these: NCI Report on NSC 369397; cited from earlier work.
Data set [4] concerns P. vivax and P. falciparum. The settings on record: 2099 cases of malaria, different dosage forms; cited from earlier work.
Data set [5] has as its system male CD-1 mice. Description: Acute toxicity study, single intraperitoneal injection. The settings on record: for Mortality: single ip, male CD-1 mice. The protocol:
Each compound was dissolved in DMSO (Mallinkrodt Lot No. V18H15) to achieve a concentration of 200 mg/ml, and then 3 parts sesame oil (Spectrum Lot No. M10656) was added to make a working concentration of 50 mg/ml for dose administration. Stability, strength, and uniformity of the test articles in the dose formulations were not determined for this study.
Forty-two CD1 male mice purchased from Charles River Laboratories (Wilmington, Mass.) were used in the study. Mice were quarantined for 3 days prior to initiation of the study.
Mice were weighed and randomized into treatment groups on the day prior to the first dose administration. Due to limitations in the amount of available test materials, fewer mice in 1000 mg/kg groups were treated than specified in the protocol. The numbers of animals intended to be used and actually used with each compound at each dose level are shown in the table below; the only differences are in the high-dose groups.
Surviving animals were sacrificed on Day 8 and blood was collected for clinical pathology evaluations.
Mortality and morbidity were checked twice daily on weekdays and once daily on the weekend, see Table VI. Animals were weighed daily and prior to necropsy.

On to `C[C@@H]1CC[C@H]2[C@@H](C)C(=O)O[C@@H]3O[C@]4(C)CC[C@@H]1[C@]32OO4` [Artemisinin], for which the half-maximal inhibitory concentration (IC50) (in general, the concentration at which inhibition is half-maximal) in data set [1] was 29.8 µM. Besides, the SD90 in data set [2] was 6.20 mg/kg. For the same molecule, the activity in words result in data set [3] was “inactive”. Besides, the clinical outcome in data set [4] is “clinical cure of all patients”.
Regarding `CC1CCC2C(C)C(CC(COC(=O)c3cc[n+]([O-])cc3)CC3OC4OC5(C)CCC6C(C)CCC(C3C)C46OO5)OC3OC4(C)CCC1C32OO4` (stereo not drawn) [Compound 13, bis-trioxane primary alcohol isonicotinate N-oxide], the Mortality result in data set [5] (125 mg/kg) is on record as “No death”; in data set [5] (250 mg/kg), “No death”; in data set [5] (500 mg/kg), 3/3 dead; in data set [5] (750 mg/kg), 2/3 dead. The “toxicity relative to sodium artesunate in words” value in data set [5] (intraperitoneally to mice as a single dose) was “less toxic”.
